The text below walks through data of patent US20250163051A1, “PYRIMIDO AROMATIC RING COMPOUND AND USE THEREOF IN DRUG” (SUNSHINE LAKE PHARMA CO., LTD., priority 2022, published 2025).

Read-outs that look alike come from different tables or passages of the source.

One data set concerns the target T1, hTLR8 (Homo sapiens, UniProt Q9NR97).
T1 construct: expressed in transfected cells; host or cells: HEK-Blue hTLR8 cells
T1 sequence (Q9NR97 27-1041): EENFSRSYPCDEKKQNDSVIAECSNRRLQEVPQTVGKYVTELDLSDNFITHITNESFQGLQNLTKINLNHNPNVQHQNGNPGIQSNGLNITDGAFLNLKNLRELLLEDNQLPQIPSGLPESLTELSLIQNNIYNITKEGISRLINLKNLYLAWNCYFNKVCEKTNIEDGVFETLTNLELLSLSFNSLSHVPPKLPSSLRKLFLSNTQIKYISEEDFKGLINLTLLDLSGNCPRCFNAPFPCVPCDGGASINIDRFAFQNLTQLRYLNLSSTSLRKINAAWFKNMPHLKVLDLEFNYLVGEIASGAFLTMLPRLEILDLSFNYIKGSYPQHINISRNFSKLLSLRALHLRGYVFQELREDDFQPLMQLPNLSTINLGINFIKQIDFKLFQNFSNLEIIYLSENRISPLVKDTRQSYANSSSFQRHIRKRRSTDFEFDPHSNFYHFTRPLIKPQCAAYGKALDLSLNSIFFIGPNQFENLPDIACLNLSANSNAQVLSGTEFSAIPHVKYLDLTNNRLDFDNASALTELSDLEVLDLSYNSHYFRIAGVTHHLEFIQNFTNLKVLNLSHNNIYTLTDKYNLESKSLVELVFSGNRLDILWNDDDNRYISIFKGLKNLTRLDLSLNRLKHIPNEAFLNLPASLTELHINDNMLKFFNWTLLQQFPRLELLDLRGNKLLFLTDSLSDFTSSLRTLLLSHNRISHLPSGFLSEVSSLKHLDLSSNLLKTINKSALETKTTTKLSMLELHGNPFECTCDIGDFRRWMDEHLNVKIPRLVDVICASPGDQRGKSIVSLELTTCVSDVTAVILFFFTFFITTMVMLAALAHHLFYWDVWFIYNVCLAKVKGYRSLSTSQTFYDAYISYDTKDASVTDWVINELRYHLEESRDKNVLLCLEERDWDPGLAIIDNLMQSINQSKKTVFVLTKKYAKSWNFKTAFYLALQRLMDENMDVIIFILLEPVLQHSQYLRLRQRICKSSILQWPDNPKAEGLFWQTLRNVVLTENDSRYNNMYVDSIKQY
The data set can be described thus: Agonistic activity on human TLR8 in HEK-Blue hTLR8 cells (QUANTI-Blue). As to conditions: 24 h incubation, OD650, read-out: hTLR 8 EC50. In kind it is cell-based.

The target in a further data set is T2, CYP2C19 (Homo sapiens, UniProt P33261).
T2 construct: from tissue; host or cells: human liver microsomes
T2 sequence (P33261 whole entry): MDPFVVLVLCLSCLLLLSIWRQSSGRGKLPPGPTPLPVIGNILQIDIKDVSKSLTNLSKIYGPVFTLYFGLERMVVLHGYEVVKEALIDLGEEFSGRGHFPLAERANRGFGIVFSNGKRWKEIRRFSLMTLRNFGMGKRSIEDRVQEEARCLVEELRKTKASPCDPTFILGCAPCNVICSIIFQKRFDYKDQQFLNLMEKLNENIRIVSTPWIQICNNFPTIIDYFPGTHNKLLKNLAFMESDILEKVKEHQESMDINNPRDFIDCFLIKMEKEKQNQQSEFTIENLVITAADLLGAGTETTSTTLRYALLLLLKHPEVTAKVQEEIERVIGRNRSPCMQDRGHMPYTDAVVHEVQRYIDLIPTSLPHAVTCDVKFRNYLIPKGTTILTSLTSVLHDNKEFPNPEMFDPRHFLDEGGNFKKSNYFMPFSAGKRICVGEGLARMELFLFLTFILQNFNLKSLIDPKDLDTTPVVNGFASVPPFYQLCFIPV
The data set can be described thus: Inhibition of human liver microsomal CYP2C19. In kind it is in vitro ADME. The note with it: human liver microsomes, 10 μM test substance; read-out: Relative inhibition rate (%) CYP2C19. The method, then:
(§1) Experimental purpose: The inhibitory effects of the test compounds on the major metabolizing enzymes CYP1A2, CYP2C19, CYP2D6 and CYP3A4 in microsomes were evaluated using the human liver microsomal system. Experimental method: The test substance was incubated with a suspension of human liver microsomes containing cytochrome P450 enzymes CYP1A2, CYP2C19, CYP2D6 and CYP3A4 at a concentration of 10 μM in the final incubation system. The known substrates were metabolized by the corresponding single enzymes to generate specific metabolites, and the metabolites were determined by UPLC-MS/MS method. The relative inhibition rate (%) was calculated by the percentage reduction of metabolite production by the test compound and solvent DMSO in the same time period. N is the concentration value of the probe substrate metabolite and it is assumed that the […] with or without inhibitor at 0 min is 0. N+inh is the metabolite concentration in the group with inhibitor, and Nveh is the metabolite concentration in the group without inhibitor. The results of the inhibition test of the compounds of the present invention on human liver microsomal CYP enzymes are shown in Table C.

Data set [1] addresses T3, CYP3A4 (Homo sapiens, UniProt P08684).
T3 construct: from tissue; host or cells: human liver microsomes
The data set can be described thus: Inhibition of human liver microsomal CYP3A4. In kind it is in vitro ADME. The note with it: human liver microsomes, 10 μM test substance. As for the experimental part:
as §1

For data set [2], the system named is CYP3A4. The data set can be described thus: Induction of CYP3A4 in frozen human hepatocytes. In kind it is in vitro ADME. The note with it: 72 h induction, concentration and readout not stated; for CYP3A4 Induction percentage relative to positive control (%): positive control Rifampicin. The method, then: Experimental purpose: Using frozen human hepatocytes as the test system, the induction effects of the test substances on CYP1A2, CYP2B6 and CYP3A4 were evaluated from two aspects of enzyme activity and mRNA level.
Experimental method: 24 hours after cell plating, induction was started by adding medium containing the test compound (test concentrations were 10, 1, and 0.1 μM), and fresh drug-containing medium was replaced every 24 hours. After 72 hours of induction, the medium was replaced with medium containing CYP1A2, CYP2B6, and CYP3A4 specific substrates for 30 minutes of incubation. 100 μL was taken for treatment, and the labeled metabolites of the substrates were detected to evaluate the enzyme activity level. Finally, the cells were lysed and reverse transcribed, and the expression levels of CYP1A2, CYP2B6 and CYP3A4 genes in the cells were evaluated by real-time quantitative PCR.
The induction fold of the test compound compared with the blank control and the induction percentage of the test compound compared with the positive control were used as the basis for evaluating the induction potential of the test compound. Among them, the positive control for CYP1A2 is Omeprazole; the positive control for CYP2B6 is Phenobarbital; the positive control for CYP3A4 is Rifampicin.

The next data set concerns the target T4, hERG channel (Homo sapiens, UniProt Q12809).
T4 construct: expressed in transfected cells; host or cells: HEK-293 cells stably expressing hERG
The experiment in a line: hERG channel current in HEK293 cells, automated patch clamp. As to conditions: HEK-293 cells stably expressing hERG, whole-cell patch clamp, 0.3-30 μM. In kind it is cell-based. As for the experimental part: Test 2: Detection of the Effect of Compounds on hERG Channel Currents Stably Expressed in HEK293 Cells Using Automated Patch Clamp
Experimental purpose: The concentration-effect relationship of the blocking effect of the compounds on hERG channels was determined using the patch clamp technique and HEK-293 cells stably expressing hERG channels to evaluate their risk of inhibitory effect on cardiac hERG potassium channels.
Experimental method: hERG cells were clamped using the patch clamp technique to form a high-resistance seal and then the membrane was broken. The whole-cell recording mode was used to record the hERG current. Each drug concentration was set to be administered twice for at least 5 minutes. The test concentrations were 0.3 μM, 1 μM, 3 μM, 10 μM and 30 μM, and the changes of the test compounds on hERG current were observed.

Where [3] appears, read: probe Midazolam, substrate Midazolam, read-out: Relative inhibition rate (%) CYP3A4 (Midazolam).
[4] abbreviates: probe Testosterone, substrate Testosterone, read-out: Relative inhibition rate (%) CYP3A4 (Testosterone).

T3 sequence (P08684 whole entry): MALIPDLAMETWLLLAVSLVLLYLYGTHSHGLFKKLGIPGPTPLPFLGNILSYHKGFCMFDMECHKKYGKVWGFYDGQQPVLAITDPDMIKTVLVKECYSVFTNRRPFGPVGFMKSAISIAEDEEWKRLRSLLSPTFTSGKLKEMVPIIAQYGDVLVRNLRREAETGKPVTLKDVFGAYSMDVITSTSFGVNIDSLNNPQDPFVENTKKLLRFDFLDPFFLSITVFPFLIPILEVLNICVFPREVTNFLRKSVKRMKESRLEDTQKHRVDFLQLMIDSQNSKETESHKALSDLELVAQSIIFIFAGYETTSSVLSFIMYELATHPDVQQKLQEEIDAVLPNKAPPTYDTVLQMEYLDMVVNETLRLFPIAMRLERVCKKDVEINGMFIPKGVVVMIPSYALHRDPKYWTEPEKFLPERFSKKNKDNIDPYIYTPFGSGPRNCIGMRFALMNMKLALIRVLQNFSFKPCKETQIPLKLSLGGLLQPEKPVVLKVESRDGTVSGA
T4 sequence (Q12809 whole entry): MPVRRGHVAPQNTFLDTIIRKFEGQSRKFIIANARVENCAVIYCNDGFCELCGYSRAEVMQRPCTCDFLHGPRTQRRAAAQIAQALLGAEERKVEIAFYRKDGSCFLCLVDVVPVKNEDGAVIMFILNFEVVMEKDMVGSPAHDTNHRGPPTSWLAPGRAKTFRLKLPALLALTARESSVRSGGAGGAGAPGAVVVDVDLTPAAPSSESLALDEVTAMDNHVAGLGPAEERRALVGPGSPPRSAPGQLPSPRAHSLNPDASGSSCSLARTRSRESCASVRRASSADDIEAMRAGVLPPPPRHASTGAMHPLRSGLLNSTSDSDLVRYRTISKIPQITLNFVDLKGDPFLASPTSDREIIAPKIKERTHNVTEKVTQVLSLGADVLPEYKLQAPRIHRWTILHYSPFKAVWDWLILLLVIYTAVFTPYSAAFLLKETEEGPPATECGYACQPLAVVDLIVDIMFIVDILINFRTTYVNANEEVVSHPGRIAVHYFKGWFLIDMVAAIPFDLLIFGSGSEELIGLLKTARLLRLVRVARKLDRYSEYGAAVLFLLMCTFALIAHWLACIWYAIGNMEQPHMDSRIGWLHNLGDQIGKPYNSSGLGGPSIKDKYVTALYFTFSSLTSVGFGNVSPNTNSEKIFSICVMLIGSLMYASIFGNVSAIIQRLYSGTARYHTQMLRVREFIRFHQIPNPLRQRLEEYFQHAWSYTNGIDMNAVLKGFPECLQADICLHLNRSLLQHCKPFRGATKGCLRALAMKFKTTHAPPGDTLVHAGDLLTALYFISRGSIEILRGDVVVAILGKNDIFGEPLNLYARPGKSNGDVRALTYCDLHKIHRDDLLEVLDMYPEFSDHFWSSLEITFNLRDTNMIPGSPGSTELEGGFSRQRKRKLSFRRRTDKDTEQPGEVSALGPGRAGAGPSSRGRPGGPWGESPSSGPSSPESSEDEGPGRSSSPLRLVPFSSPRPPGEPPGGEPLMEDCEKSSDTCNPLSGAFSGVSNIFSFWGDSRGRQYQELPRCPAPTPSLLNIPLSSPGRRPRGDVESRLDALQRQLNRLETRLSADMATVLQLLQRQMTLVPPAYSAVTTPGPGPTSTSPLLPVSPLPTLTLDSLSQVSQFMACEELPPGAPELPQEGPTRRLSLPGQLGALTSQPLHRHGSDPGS
Experimental for hTLR8: Purpose: HEK-Blue™ hTLR7 and HEK-Blue™ hTLR8 cells were used to detect the agonist and cytotoxic activities of compounds against hTLR7 and hTLR8.
The experimental steps were as shown below: • 1) Preparation of compound: The compound was prepared into a 20 mM stock solution with DMSO, and then the stock solution was diluted 3-fold in a gradient and added to a 96-well plate, for a total of 10 concentrations, with duplicate wells for each concentration. For negative control wells, 0.5 μL DMSO was added to each well. The final DMSO concentration was 0.5%. • 2) HEK-Blue™ hTLR7 or HEK-Blue™ hTLR8 cells were suspended in culture medium and then seeded into 96-well plates containing compounds at a cell count of 50,000 per well. The compounds and cells were incubated for 24 h at 37° C., 5% Co2. • 3) QUANTI-Blue was used for the detection solution: to a mixture of 1 mL of QB reagent and 1 mL of QB buffer was added 98 mL of sterile water, the mixture was mixed and dissolved, and then placed at room temperature for 10 min. • 4) Activity test of the compound: 20 μL of the culture supernatant in step 2) was added to each well of a 96-well plate containing 180 μL of QUANTI-Blue detection solution. After incubation at 37° C. for 1 h, the absorbance at 650 nm (OD650) was detected using a multifunctional microplate reader Flextation III. • 5) Detection of cell activity: The chemiluminescent signal (RLU) was detected using the multifunctional microplate reader Flextation III according to the instructions of Celltiter-Glo. • 6) Data analysis
Activity of compounds: OD650 values were analyzed using GraphPad Prism software, and the compound dose-effect curves were fitted to calculate the EC50 values of the compounds.

For the compound `C=CCCN(C)Cc1c[nH]c(=O)cc1-c1ccc2c(N[C@@](C)(CO)CCCC)nc(N)nc2c1` [Example 35], the EC50 at hTLR8 was 79 nM. In addition, the inhibition at 10 µM on CYP2C19 stood at 9.7%; at CYP3A4 [1] (setting [3]), 23.9%; at CYP3A4 [1] (setting [4]) it was 11.5%. Further, the “CYP3A4 Induction fold relative to blank control” value in the data set with CYP3A4 [2] stood at 1.3. Also, in the data set with CYP3A4 [2], the “CYP3A4 Induction percentage relative to positive control (%)” value is 0.9%.
Consider `CCCC[C@](C)(CO)Nc1nc(N)nc2cc(-c3cc(=O)[nH]cc3CN(C)CCOC)cnc12` [Example 21], for which the EC50 on hTLR8 was 34 nM. The IC50 against hERG channel was over 30 µM. Besides, the inhibition at 10 µM on CYP2C19 is 10.5%; at CYP3A4 [1] (setting [3]), 15.3%; at CYP3A4 [1] (setting [4]) it was 18%. Moreover, the “CYP3A4 Induction fold relative to blank control” value in the data set on CYP3A4 [2] came out at 1.4. Moreover, the “CYP3A4 Induction percentage relative to positive control (%)” value in the data set with CYP3A4 [2] is recorded as 1.5%.
As to `CCCCN(C)Cc1c[nH]c(=O)cc1-c1cnc2c(N[C@@](C)(CO)CCCC)nc(N)nc2c1` [Example 28, (R)-4-(2-Amino-4-((1-hydroxy-2-methylhexan-2-yl)amino)pyrido[3,2-d]pyrimidin-7-yl)-5-((butyl(methyl)amino)methyl)pyridin-2(1H)-one], at hTLR8, the EC50 came to 63 nM. Moreover, the IC50 at hERG channel was over 30 µM. The inhibition at 10 µM on CYP2C19 came out at 30.5%; at CYP3A4 [1] (setting [3]), 31.1%; on CYP3A4 [1] (setting [4]), 17.9%. Besides, in the data set with CYP3A4 [2], the “CYP3A4 Induction fold relative to blank control” value was 2.0. Besides, in the data set on CYP3A4 [2], the “CYP3A4 Induction percentage relative to positive control (%)” value turned out to be 2.0%.
Regarding `CCCC[C@](C)(CO)Nc1nc(N)nc2cc(-c3cc(=O)n(C)cc3CN3CCCCC3)ccc12` [Example 8], at hTLR8, the EC50 came to 42 nM. This compound also displayed an IC50 at hERG channel of over 30 µM. Besides, the inhibition at 10 µM was 9.3% on CYP2C19, 9.6% on CYP3A4 [1] (setting [3]) and 6.3% on CYP3A4 [1] (setting [4]). Moreover, in the data set on CYP3A4 [2], the “CYP3A4 Induction fold relative to blank control” value stood at 0.6. Moreover, the “CYP3A4 Induction percentage relative to positive control (%)” value with CYP3A4 [2] is reported as −1.5%.
